Results on 9 compounds are retold here after ChEMBL document CHEMBL5528047, “A Potent SOS1 PROTAC Degrader with Synergistic Efficacy in Combination with KRASG12C Inhibitor” (J Med Chem, 2024).

Series [1] relates to MIA PaCa-2. Briefly: Antiproliferative activity against human MIA PaCa-2 cells incubated for 72 hrs by CCK8 assay. Type of series: functional, cell-based. The following applies: MIA PaCa-2, 72 h. For orientation: Tetrazolium assays rely on reduction of a dye to a coloured formazan, in cell work by metabolically active cells.
Another series concerns K562. Nature of the series: Antiproliferative activity against human K562 cells incubated for 72 hrs by CCK8 assay. Particulars: K562, 72 h. It is filed as functional, cell-based.
Series [2] concerns the target T1, Protein cereblon/Son of sevenless homolog 1 (Homo sapiens) (UniProt Q07889+Q96SW2). Briefly: Protac activity at CRBN/SOS1 in human PANC-1 cells assessed as SOS1 degradation at 10 uM by Western blotting analysis relative to control. It is filed as cell-based.
The target in series [3] is T1, Protein cereblon/Son of sevenless homolog 1 (Homo sapiens). Briefly: Protac activity at CRBN/SOS1 in human PANC-1 cells assessed as SOS1 degradation at 1 uM by Western blotting analysis. Type of series: cell-based.
Series [4] shares this target. Briefly: Protac activity at CRBN/SOS1 in human K562 cells assessed as SOS1 degradation at 10 uM by Western blotting analysis relative to control. It is filed as cell-based. A general note: In western blotting, separated proteins are transferred to a membrane and probed.
The target is the same in series [5]. Briefly: Protac activity at CRBN/SOS1 in human K562 cells assessed as SOS1 degradation at 1 uM by Western blotting analysis relative to control. It is filed as cell-based.
The target in series [6] is T2, von Hippel-Lindau disease tumor suppressor/Son of sevenless homolog 1 (Homo sapiens, UniProt Q07889+P40337). Briefly: Protac activity at VHL/SOS1 in human PANC-1 cells assessed as SOS1 degradation at 1 uM by Western blotting analysis relative to control. Type of series: cell-based.
Target sequence in this assay (P40337 whole entry, looked up): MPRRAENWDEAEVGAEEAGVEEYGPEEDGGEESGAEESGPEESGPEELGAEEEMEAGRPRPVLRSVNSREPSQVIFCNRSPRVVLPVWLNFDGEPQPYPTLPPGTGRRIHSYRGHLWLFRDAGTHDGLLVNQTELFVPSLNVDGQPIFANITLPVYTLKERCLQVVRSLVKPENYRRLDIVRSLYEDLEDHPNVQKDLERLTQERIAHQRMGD
Target sequence in this assay (Q07889 whole entry, looked up): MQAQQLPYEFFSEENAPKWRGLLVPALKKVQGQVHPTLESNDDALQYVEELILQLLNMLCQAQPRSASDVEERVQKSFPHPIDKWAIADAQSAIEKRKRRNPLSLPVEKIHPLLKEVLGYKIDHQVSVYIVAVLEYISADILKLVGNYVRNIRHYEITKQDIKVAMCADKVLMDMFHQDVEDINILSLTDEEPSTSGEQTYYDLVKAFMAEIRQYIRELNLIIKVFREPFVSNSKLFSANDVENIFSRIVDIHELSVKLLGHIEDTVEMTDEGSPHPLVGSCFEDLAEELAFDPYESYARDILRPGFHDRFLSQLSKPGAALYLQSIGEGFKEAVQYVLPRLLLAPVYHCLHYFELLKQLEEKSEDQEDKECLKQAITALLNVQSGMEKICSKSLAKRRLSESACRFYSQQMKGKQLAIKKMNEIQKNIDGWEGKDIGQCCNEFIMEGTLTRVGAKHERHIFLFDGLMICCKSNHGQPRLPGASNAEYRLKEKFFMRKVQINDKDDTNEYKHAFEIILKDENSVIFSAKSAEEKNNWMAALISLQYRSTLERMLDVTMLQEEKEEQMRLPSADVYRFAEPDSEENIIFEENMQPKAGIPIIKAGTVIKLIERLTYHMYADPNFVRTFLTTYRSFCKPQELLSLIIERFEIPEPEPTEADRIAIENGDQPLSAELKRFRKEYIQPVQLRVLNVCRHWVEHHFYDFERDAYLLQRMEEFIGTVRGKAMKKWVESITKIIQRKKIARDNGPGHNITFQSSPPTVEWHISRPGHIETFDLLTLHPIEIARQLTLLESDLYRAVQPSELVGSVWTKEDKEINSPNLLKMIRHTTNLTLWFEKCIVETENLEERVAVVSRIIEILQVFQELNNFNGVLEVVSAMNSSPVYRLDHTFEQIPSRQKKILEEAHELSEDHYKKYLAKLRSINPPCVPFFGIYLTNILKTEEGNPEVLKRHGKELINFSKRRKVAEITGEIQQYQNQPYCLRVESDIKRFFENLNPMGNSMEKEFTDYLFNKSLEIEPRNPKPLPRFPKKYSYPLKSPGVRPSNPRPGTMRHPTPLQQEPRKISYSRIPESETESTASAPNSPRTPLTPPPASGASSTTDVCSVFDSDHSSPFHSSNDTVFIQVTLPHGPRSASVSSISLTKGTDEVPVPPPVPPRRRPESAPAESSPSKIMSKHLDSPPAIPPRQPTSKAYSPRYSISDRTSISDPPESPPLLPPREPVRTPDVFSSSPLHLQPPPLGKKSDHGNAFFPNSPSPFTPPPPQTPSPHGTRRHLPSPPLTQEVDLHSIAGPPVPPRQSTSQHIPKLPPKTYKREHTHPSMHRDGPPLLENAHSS
Series [7] deals with T2, von Hippel-Lindau disease tumor suppressor/Son of sevenless homolog 1. Briefly: Protac activity at VHL/SOS1 in human PANC-1 cells assessed as SOS1 degradation at 10 uM by Western blotting analysis relative to control. It is filed as cell-based.
Target sequence in this assay (P40337 whole entry, looked up): as the sequence (P40337 whole entry, looked up) above
Target sequence in this assay (Q07889 whole entry, looked up): as the sequence (Q07889 whole entry, looked up) above
Series [8] shares this target. Briefly: Protac activity at VHL/SOS1 in human K562 cells assessed as SOS1 degradation at 10 uM by Western blotting analysis relative to control. It is filed as cell-based.
Target sequence in this assay (P40337 whole entry, looked up): as the sequence (P40337 whole entry, looked up) above
Target sequence in this assay (Q07889 whole entry, looked up): as the sequence (Q07889 whole entry, looked up) above
The target is the same in series [9]. Nature of the series: Protac activity at VHL/SOS1 in human K562 cells assessed as SOS1 degradation at 1 uM by Western blotting analysis relative to control. It is filed as cell-based.
Target sequence in this assay (P40337 whole entry, looked up): as the sequence (P40337 whole entry, looked up) above
Target sequence in this assay (Q07889 whole entry, looked up): as the sequence (Q07889 whole entry, looked up) above
Series [10] has as its system MIA PaCa-2. Briefly: Antiproliferative activity against human MIA PaCa-2 cells incubated for 6 days in presence of 1 uM (2S,4R)-1-((S)-2-(5-((4-(((R)-1-(3-amino-5-(trifluoromethyl)phenyl)ethyl)amino)-7-methoxy-2-methylquinazolin-6-yl)oxy)pentanamido)-3,3-dimethylbutanoyl)-4-hydroxy-N-(4-(4-methylthiazol-5-yl)benzyl)pyrrolidine-2-carboxamide by CCK8 assay. Type of series: functional, cell-based. Particulars: MIA PaCa-2, 144 h.

The test system of series [11] is MIA PaCa-2. Briefly: Antiproliferative activity against human MIA PaCa-2 cells incubated for 6 days in presence of 10 uM (2S,4R)-1-((S)-2-(5-((4-(((R)-1-(3-amino-5-(trifluoromethyl)phenyl)ethyl)amino)-7-methoxy-2-methylquinazolin-6-yl)oxy)pentanamido)-3,3-dimethylbutanoyl)-4-hydroxy-N-(4-(4-methylthiazol-5-yl)benzyl)pyrrolidine-2-carboxamide by CCK8 assay. It is filed as functional, cell-based. The following applies: MIA PaCa-2, 144 h.

Series [12] is described as follows: Stability in human NCI-H358 cells assessed as compound remaining at 0.2 mM after 72 hrs by HPLC analysis. Type of series: ADME, cell-based. Particulars: read-out: Stability.
The subject of series [13] is NCI-H358. Nature of the series: Antiproliferative activity against human NCI-H358 cells incubated for 6 days in presence of 1 uM (2S,4R)-1-((S)-2-(5-((4-(((R)-1-(3-amino-5-(trifluoromethyl)phenyl)ethyl)amino)-7-methoxy-2-methylquinazolin-6-yl)oxy)pentanamido)-3,3-dimethylbutanoyl)-4-hydroxy-N-(4-(4-methylthiazol-5-yl)benzyl)pyrrolidine-2-carboxamide by CCK8 assay. Type of series: functional, cell-based. Particulars: NCI-H358, 144 h.

The test system of series [14] is SW837. Briefly: Antiproliferative activity against human SW837 cells incubated for 6 days by CCK8 assay. It is filed as functional, cell-based. Particulars: SW837, 144 h.
Series [15] deals with NCI-H358. Nature of the series: Inhibition of RAS pathway in SOS1 knockout human NCI-H358 cells at 100 nM. It is filed as cell-based.
Series [16] relates to SW837. Briefly: Antiproliferative activity against human SW837 cells incubated for 6 days in presence of 10 uM (2S,4R)-1-((S)-2-(5-((4-(((R)-1-(3-amino-5-(trifluoromethyl)phenyl)ethyl)amino)-7-methoxy-2-methylquinazolin-6-yl)oxy)pentanamido)-3,3-dimethylbutanoyl)-4-hydroxy-N-(4-(4-methylthiazol-5-yl)benzyl)pyrrolidine-2-carboxamide by CCK8 assay. Type of series: functional, cell-based. The following applies: SW837, 144 h.

The test system of series [17] is MIA PaCa-2. Briefly: Upregulation of SOS1 protein in human MIA PaCa-2 cells. It is filed as functional, cell-based.
Series [18] relates to NCI-H358. Briefly: Upregulation of SOS1 protein in human NCI-H358 cells. Type of series: functional, cell-based.
For series [19], the system named is NCI-H358. Nature of the series: Antitumor activity against human NCI-H358 cells xenografted in BALB/c mouse assessed as tumor growth inhibition at 10 mg/kg, ip administered once daily for 28 days. Type of series: functional. Particulars: NCI-H358, 672 h, time 28 day, read-out: TGI.
The subject of series [20] is MIA PaCa-2. Nature of the series: Antiproliferative activity against human MIA PaCa-2 cells incubated for 6 days by CCK8 assay. It is filed as functional, cell-based. Particulars: MIA PaCa-2, 144 h.
Series [21] has as its system NCI-H358. Nature of the series: Antiproliferative activity against human NCI-H358 cells incubated for 6 days by CCK8 assay. Type of series: functional, cell-based. The following applies: NCI-H358, 144 h.
The nature of series [22]: Stability in human MIA PaCa-2 cells assessed as compound remaining at 0.2 mM after 72 hrs by HPLC analysis. It is filed as ADME, cell-based. Particulars: read-out: Stability.
The test system of series [23] is MIA PaCa-2. Nature of the series: Inhibition of ERK phosphorylation in human MIA PaCa-2 cells at 300 nM after 24 hrs. Type of series: cell-based.
In series [24] the test system is NCI-H358. Briefly: Antiproliferative activity against human NCI-H358 cells incubated for 6 days in presence of 10 uM (2S,4R)-1-((S)-2-(5-((4-(((R)-1-(3-amino-5-(trifluoromethyl)phenyl)ethyl)amino)-7-methoxy-2-methylquinazolin-6-yl)oxy)pentanamido)-3,3-dimethylbutanoyl)-4-hydroxy-N-(4-(4-methylthiazol-5-yl)benzyl)pyrrolidine-2-carboxamide by CCK8 assay. It is filed as functional, cell-based. Particulars: NCI-H358, 144 h.

Series [25] relates to MIA PaCa-2. Nature of the series: Inhibition of RAS pathway in SOS1 knockout human MIA PaCa-2 cells at 100 nM. It is filed as cell-based.
The subject of series [26] is MIA PaCa-2. Nature of the series: Inhibition of ERK phosphorylation in human MIA PaCa-2 cells at 100 nM after 24 to 72 hrs in presence of BI3406 by Western blotting analysis. It is filed as cell-based. The following applies: time 24-72 hrs.
The test system of series [27] is SW837. Briefly: Antiproliferative activity against human SW837 cells incubated for 6 days in presence of 1 uM (2S,4R)-1-((S)-2-(5-((4-(((R)-1-(3-amino-5-(trifluoromethyl)phenyl)ethyl)amino)-7-methoxy-2-methylquinazolin-6-yl)oxy)pentanamido)-3,3-dimethylbutanoyl)-4-hydroxy-N-(4-(4-methylthiazol-5-yl)benzyl)pyrrolidine-2-carboxamide by CCK8 assay. Type of series: functional, cell-based. The following applies: SW837, 144 h.

The subject of series [28] is NCI-H358. Nature of the series: Inhibition of ERK phosphorylation in human NCI-H358 cells at 300 nM after 24 hrs. Type of series: cell-based.
Series [29] deals with T2, von Hippel-Lindau disease tumor suppressor/Son of sevenless homolog 1. Briefly: Protac activity at VHL/SOS1 in human K562 cells assessed as SOS1 degradation incubated for 24 hrs by Western blotting analysis. Type of series: cell-based.
Series [30] shares this target. Nature of the series: Protac activity at VHL/SOS1 in human MIA PaCa-2 cells assessed as SOS1 degradation incubated for 24 hrs by Western blotting analysis. It is filed as cell-based.
Series [31] shares this target. Nature of the series: Protac activity at VHL/SOS1 in human NCI-H358 cells assessed as SOS1 degradation incubated for 24 hrs by Western blotting analysis. Type of series: cell-based.
Series [32] shares this target. Briefly: Protac activity at VHL/SOS1 in human PANC-1 cells assessed as SOS1 degradation incubated for 24 hrs by Western blotting analysis. It is filed as cell-based.

The source made the active and inactive calls. The rule behind the calls is not given here.

A word on the IC50: it is the concentration that inhibits the measured activity by half. Broadly, the DC50 is the concentration at which degradation of the target reaches its halfway point.

T1 sequence (Q07889 whole entry, looked up): as above
T1 sequence (Q96SW2 whole entry, looked up): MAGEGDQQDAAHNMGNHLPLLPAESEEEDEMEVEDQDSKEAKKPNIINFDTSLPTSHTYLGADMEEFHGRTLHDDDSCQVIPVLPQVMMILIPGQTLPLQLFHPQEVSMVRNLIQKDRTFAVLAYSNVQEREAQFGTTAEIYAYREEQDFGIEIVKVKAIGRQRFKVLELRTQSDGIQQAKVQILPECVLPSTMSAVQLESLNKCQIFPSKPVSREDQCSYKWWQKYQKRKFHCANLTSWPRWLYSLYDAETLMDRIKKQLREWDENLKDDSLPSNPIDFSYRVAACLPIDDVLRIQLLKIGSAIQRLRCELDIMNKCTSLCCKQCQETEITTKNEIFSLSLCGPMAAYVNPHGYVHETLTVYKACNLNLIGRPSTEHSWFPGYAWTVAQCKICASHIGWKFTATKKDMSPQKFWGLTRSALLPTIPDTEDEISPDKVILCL

As to `COc1cc2nc(C)nc(N[C@H](C)c3cc(N)cc(C(F)(F)F)c3)c2cc1O[C@H]1CCOC1`, the results for the IC50 with MIA PaCa-2 [1] and with K562 were 0.029 µM and 1.42 µM, respectively.
`COc1cc2nc(C)nc(N[C@H](C)c3cc(-c4ccccc4CNCCCCCCNc4ccc5c(c4)C(=O)N(C4CCC(=O)NC4=O)C5=O)cs3)c2cc1OC` (some centres not stated): the Activity stood at 0% in [2], 0% in [3], 37.7% in [4] and 0% in series [5].
On to `COc1cc2nc(C)nc(N[C@H](C)c3cc(-c4ccccc4CNCCCCCCCNc4ccc5c(c4)C(=O)N(C4CCC(=O)NC4=O)C5=O)cs3)c2cc1OC` (some centres not stated), for which the Activity in [2] amounted to 3.4%; in [3] it was 0%; in [4], 72.1%; in series [5] it was 35.4%.
`COc1cc2nc(C)nc(N[C@H](C)c3cc(-c4ccccc4CNCCCCCCCCNc4ccc5c(c4)C(=O)N(C4CCC(=O)NC4=O)C5=O)cs3)c2cc1OC` (some centres not stated): the Activity is 0% in [2], 1.3% in series [3], 46.7% in series [4] and 35.6% in series [5].
For the compound `COc1cc2nc(C)nc(C[C@H](C)c3cc(-c4ccccc4CNCCCCCCCCCNc4ccc5c(c4)C(=O)N(C4CCC(=O)NC4=O)C5=O)cs3)c2cc1OC` (some centres not stated), the Activity in series [2] worked out at 0%; in series [3] it was 10.3%; in series [4], 89.1%; in series [5], 0%.
In the case of `COc1cc2nc(C)nc(N[C@H](C)c3cc(N)cc(C(F)(F)F)c3)c2cc1OCCCCCCCCC(=O)N[C@H](C(=O)N1C[C@H](O)C[C@H]1C(=O)NCc1ccc(-c2scnc2C)cc1)C(C)(C)C`, the Activity in series [6] was 28.2%; in [7], 21.5%; in series [8], 0%; in series [9], 0%.
For the compound `C=CC(=O)N1CCN(c2nc(=O)n(-c3c(C)ccnc3C(C)C)c3nc(-c4c(O)cccc4F)c(F)cc23)[C@@H](C)C1` [SOTORASIB], the half-maximal inhibitory concentration (IC50) was found to be 0.013 µM in the series on MIA PaCa-2 [10]; 0.006 µM in the series with MIA PaCa-2 [11]; 0.004 µM in the series on NCI-H358 [13]; 0.009 µM in the series with SW837 [14]; 0.002 µM in the series with SW837 [16]; 0.037 µM in the series with MIA PaCa-2 [20]. Besides, the IC50 in the series on NCI-H358 [21] is 0.01 µM; with NCI-H358 [24] it was 0.001 µM; in the series on SW837 [27], 0.003 µM. The remaining at 72 h, 200 µM in [12] and in series [22] was above 70% throughout. The inhibition entry in the series with NCI-H358 [15], with MIA PaCa-2 [23], in the series with MIA PaCa-2 [25], in the series on MIA PaCa-2 [26] and in the series with NCI-H358 [28] was “Active” each time. Besides, the outcome in the series with MIA PaCa-2 [17] and with NCI-H358 [18] was Active. The inhibition in vivo at 10 mg/kg in the series on NCI-H358 [19] was found to be 34.9%.
In the case of `COc1cc2nc(C)nc(N[C@H](C)c3cc(-c4ccccc4CNCCCCCCCCC(=O)N[C@H](C(=O)N4C[C@H](O)C[C@H]4C(=O)NCc4ccc(-c5scnc5C)cc4)C(C)(C)C)cs3)c2cc1OC`, the Activity in [6] is 0%; in [7], 24.4%; in [8] it was 31.6%; in [9], 0%.
As to `COc1cc2nc(C)nc(N[C@H](C)c3cc(-c4ccccc4CNCCCCCCC(=O)N[C@H](C(=O)N4C[C@H](O)C[C@H]4C(=O)NCc4ccc(-c5scnc5C)cc4)C(C)(C)C)cs3)c2cc1OC`, the Activity in [6] was 44%; in [29] it was “Dose-Dependent Effect”; in series [30], “Dose-Dependent Effect”; in series [31] it was “Dose-Dependent Effect”; in series [7] it was 75.1%; in [8], 80.1%. The figures for the Activity entry in series [32] and in series [9] were “Dose-Dependent Effect” and 18.9%, respectively. The DC50 was 0.776 µM in series [29], 0.87 µM in series [30], 0.91 µM in [31] and 0.701 µM in [32].
